Target: T1, Sortase family protein (Staphylococcus aureus, UniProt Q9S446)
T1 sequence (Q9S446 whole entry): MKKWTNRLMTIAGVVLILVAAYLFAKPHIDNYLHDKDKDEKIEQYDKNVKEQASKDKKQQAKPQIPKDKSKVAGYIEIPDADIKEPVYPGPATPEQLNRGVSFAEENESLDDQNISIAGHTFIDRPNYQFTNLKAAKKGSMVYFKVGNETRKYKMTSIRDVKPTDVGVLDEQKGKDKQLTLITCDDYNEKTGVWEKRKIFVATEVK
Experiment: Inhibition of Staphylococcus aureus ATCC 6538p recombinant SrtA

## O=C(O)c1cc[c]([Hg][OH])cc1
  IC50: 112 µM

— BindingDB's records for doi:10.1016/j.bmc.2012.05.002 (Seoul National University, 2012)
